Experimental data reported in patent publication US7767665B2, “1,3-benzothiazinone derivatives and use thereof” (Takeda Pharmaceutical Company Limited, priority 2001, dated 2010).
Structures can show the parent of a compound that is named as a salt.

With CC(C)(C)OC(=O)CCOCc1cccc(-c2nc(=O)c3ccccc3s2)n1 [Example 336, tert-Butyl 3-[(6-(4-oxo-4H-1,3-benzothiazin-2-yl)-2-pyridyl)methoxy]propanoate] the melting point was 84.7 to 84.9 °C. In the case of CCS(=O)(=O)c1cccc(-c2nc(=O)c3ccccc3s2)n1 [Example 150, 2-[6-(Ethylsulfonyl)-2-pyridyl]-4H-1,3-benzothiazine-4-one], the melting point is reported as 201.5 to 203 °C. For CC(C)(C)OC(=O)/C=C/c1ccnc(-c2nc(=O)c3ccccc3s2)c1 [Example 311, tert-Butyl (E)-3-[2-(4-oxo-4H-1,3-benzothiazin-2-yl)-4-pyridyl]acrylate], the melting point was 196 to 196.7 °C. Compound CC(C)(C)OC(=O)NCc1cccc(-c2nc(=O)c3ccccc3s2)n1 [Example 202, tert-Butyl [6-(4-Oxo-4H-1,3-benzothiazin-2-yl)-2-pyridyl]methylcarbamate] has a melting point of 160 to 162.1 °C. CC(C)(C)OC(=O)CSc1cccc(-c2nc(=O)c3ccccc3s2)n1 [Example 275, tert-Butyl {[6-(4-oxo-4H-1,3-benzothiazin-2-yl)-2-pyridyl]thio}acetate] showed a melting point of 169.5 to 170 °C. In the case of O=c1nc(-c2cccc([S+]([O-])CCCc3ccccc3)n2)sc2ccccc12 (centres unmarked) [Example 165, 2-[6-[(3-Phenylpropyl)sulfinyl]-2-pyridyl]-4H-1,3-benzothiazine-4-one], the melting point is reported as 164.5 to 165.5 °C. In the case of CCCSc1cccc(-c2nc(=O)c3ccccc3s2)n1 [Example 59, 2-(6-Propylthio-2-pyridyl)-4H-1,3-benzothiazine-4-one], the melting point is reported as 124.5 to 125.1 °C. With C[S+]([O-])c1cc(-c2nc(=O)c3ccccc3s2)ccn1 (centres unmarked) [Example 263, 2-[2-(Methylsulfinyl)-4-pyridyl]-4H-1,3-benzothiazine-4-one] the melting point was 172.5 to 174 °C. In the case of O=c1nc(-c2ccc(N3CCCC3)nc2)sc2ccccc12 [Example 33, 2-[6-(1-Pyrrolidinyl)-3-pyridyl]-4H-1,3-benzothiazine-4-one], the melting point is reported as 221 to 223.1 °C. O=C(NC1CC1)c1ccc2c(=O)nc(-c3ccccn3)sc2c1 [Example 239, N-Cyclopropyl-4-oxo-2-(2-pyridyl)-4H-1,3-benzothiazine-7-carboxamide] gave a melting point of 272.1 to 274.1 °C. In the case of O=C(O)CCc1cccc(-c2nc(=O)c3ccc(Cl)cc3s2)n1 [Example 6, 3-[6-(7-Chloro-4-oxo-4H-1,3-benzothiazin-2-yl)-2-pyridyl]propionic acid], the melting point is reported as 224.4 to 224.7 °C. Work on O=c1nc(-c2cccc(CSc3ccccn3)n2)sc2ccccc12 [Example 272, 2-{6-[(2-Pyridylthio)methyl]-2-pyridyl}-4H-1,3-benzothiazine-4-one] yielded a melting point of 151.3 to 151.9 °C. In the case of CC(C)(C)OC(=O)CCc1cc(-c2nc(=O)c3ccccc3s2)nc(S(C)(=O)=O)c1 [Example 345, tert-Butyl 3-[2-(methylsulfonyl)-6-(4-oxo-4H-1,3-benzothiazin-2-yl)-4-pyridyl]propanoate], the melting point is reported as 223 °C (dec.). O=C(c1ccc2c(=O)nc(-c3ccccn3)sc2c1)N1CCCC1 [Example 238, 2-(2-Pyridyl)-7-(1-pyrrolidinylcarbonyl)-4H-1,3-benzothiazine-4-one] gave a melting point of 173.6 to 174.2 °C. In the case of CC(C)(C)OC(=O)CCOCCc1cccc(-c2nc(=O)c3ccccc3s2)n1 [Example 334, tert-Butyl 3-[2-(6-(4-oxo-4H-1,3-benzothiazin-2-yl)-2-pyridyl)ethoxy]propanoate], the melting point is reported as 67.7 to 68.5 °C. COC(=O)CSCc1cccc(-c2nc(=O)c3ccccc3s2)n1 [Example 258, Methyl ({[6-(4-oxo-4H-1,3-benzothiazin-2-yl)-2-pyridyl]methyl}thio)acetate] gave a melting point of 108 to 110 °C. With CC(C)CCSc1ccc(-c2nc(=O)c3ccccc3s2)cn1 [Example 92] the melting point was 92.8 to 93.1 °C. CCN1CCN(c2ccnc(-c3nc(=O)c4ccccc4s3)c2)C1=O [Example 325, 2-[4-(3-Ethyl-2-oxo-1-imidazolidinyl)-2-pyridyl]-4H-1,3-benzothiazine-4-one] gave a melting point of 211.5 to 213 °C. For CCOC(=O)CCCCc1cccc(-c2nc(=O)c3ccccc3s2)n1 [Example 303, Ethyl 5-[6-(4-oxo-4H-1,3-benzothiazin-2-yl)-2-pyridyl]valerate], the melting point was 87 to 88 °C. In the case of COc1cc2sc(-c3ccccn3)nc(=O)c2cc1OC [Example 14, 6,7-Dimethoxy-2-(2-pyridyl)-4H-1,3-benzothiazine-4-one], the melting point is reported as 236.3 to 237.5 °C. With O=c1nc(-c2nccs2)sc2ccccc12 [Example 348, 2-(1,3-thiazol-2-yl)-4H-1,3-benzothiazin-4-one] the melting point was 229.1 to 229.8 °C. CC(=O)N(C)c1cccc(-c2nc(=O)c3ccccc3s2)n1 [Example 110, N-Methyl-N-[6-(4-oxo-4H-1,3-benzothiazin-2-yl)-2-pyridyl]acetamide] showed a melting point of 218.3 to 220.3 °C. In the case of CCC(=O)NCc1cccc(-c2nc(=O)c3ccccc3s2)n1 [Example 205, N-[[6-(4-Oxo-4H-1,3-benzothiazin-2-yl)-2-pyridyl]methyl]propanamide], the melting point is reported as 199 to 199.8 °C. CC(C)(C)OC(=O)CS(=O)(=O)c1cccc(-c2nc(=O)c3ccccc3s2)n1 [Example 280, tert-Butyl {[6-(4-oxo-4H-1,3-benzothiazin-2-yl)-2-pyridyl]sulfonyl}acetate] showed a melting point of 159 to 160 °C. With O=c1nc(-c2ccnc(-c3ccccc3)c2)sc2ccccc12 [Example 75, 2-(2-Phenyl-4-pyridyl)-4H-1,3-benzothiazine-4-one] the melting point was 162.7 to 163 °C. Compound CC(C)(C)OC(=O)CCc1ccnc(-c2nc(=O)c3ccccc3s2)c1 [Example 309, tert-butyl 3-[2-(4-oxo-4H-1,3-benzothiazin-2-yl)-4-pyridyl]propionate] has a melting point of 135.8 to 136.7 °C. With O=c1nc(-c2ccnc(N3CCN(c4ccc(F)cc4)CC3)c2)sc2ccccc12 [Example 74, 2-{2-[4-(4-Fluorophenyl)-1-piperazinyl]-4-pyridyl}-4H-1,3-benzothiazine-4-one] the melting point was 233 to 233.6 °C. CSCCC(=O)NCc1cccc(-c2nc(=O)c3ccccc3s2)n1 [Example 210, 3-(Methylthio)-N-[[6-(4-oxo-4H-1,3-benzothiazin-2-yl)-2-pyridyl]methyl]propanamide] gave a melting point of 191.6 to 192.8 °C. For O=c1nc(-c2cccc(SCCc3ccccc3)n2)sc2ccccc12 [Example 131, 2-[6-(2-Phenethylthio)-2-pyridyl]-4H-1,3-benzothiazine-4-one], the melting point was 167.1 to 168.4 °C. Cc1ccnc(-c2cc(C)cc(-c3nc(=O)c4ccccc4s3)n2)c1 [Example 200, 2-[6-(4,4′-Dimethyl-2,2′-bipyridyl)]-4H-1,3-benzothiazine-4-one] gave a melting point of 234.9 to 235.2 °C. With CCSCc1cccc(-c2nc(=O)c3ccccc3s2)n1 [Example 249, 2-[6-[(Ethylthio)methyl]-2-pyridyl]-4H-1,3-benzothiazine-4-one] the melting point was 142 to 143.5 °C. For Cc1cccc2sc(-c3ccccn3)nc(=O)c12 [Example 17, 5-Methyl-2-(2-pyridyl)-4H-1,3-benzothiazine-4-one], the melting point was 150.8 to 151.3 °C. For CS(=O)(=O)c1cc(CCC(=O)O)cc(-c2nc(=O)c3ccccc3s2)n1 [Example 346, 3-[2-(Methylsulfonyl)-6-(4-oxo-4H-1,3-benzothiazin-2-yl)-4-pyridyl]propionic acid], the melting point was 305.5 to 306 °C. In the case of O=c1nc(-c2ccccn2)sc2ccc(OCCCc3ccccc3)cc12 [Example 120, 6-(3-Phenylpropoxy)-2-(2-pyridyl)-4H-1,3-benzothiazine-4-one], the melting point is reported as 170 to 170.3 °C. For Cc1csc(-c2nc(=O)c3ccccc3s2)n1 [Example 349, 2-(4-Methyl-1,3-thiazol-2-yl)-4H-1,3-benzothiazin-4-one], the melting point was 209.6 to 210.7 °C. Work on NCc1cccc(-c2nc(=O)c3ccccc3s2)n1 (as salt: trifluoroacetic acid salt) [Example 203, 2-[6-(Aminomethyl)-2-pyridyl]-4H-1,3-benzothiazine-4-one trifluoroacetic acid salt] yielded a melting point of 184.5 to 186.5 °C. O=c1nc(-c2cccc(-c3cnco3)n2)sc2ccccc12 [Example 195] showed a melting point of 271.3 to 272.7 °C. Work on CSc1ccc(Oc2ccc(-c3nc(=O)c4ccccc4s3)cn2)cc1 [Example 89] yielded a melting point of 140.5 to 140.6 °C. For Cc1cc(CCC(=O)OC(C)(C)C)cc(-c2nc(=O)c3ccc(Cl)cc3s2)n1 [Example 320, tert-Butyl 3-[2-(7-chloro-4-oxo-4H-1,3-benzothiazin-2-yl)-6-methyl-4-pyridyl]propanoate], the melting point was 186.4 to 187.6 °C. In the case of CC(C)(C)OC(=O)COc1ccc2sc(-c3ccccn3)nc(=O)c2c1 [Example 122, tert-Butyl 2-[[4-oxo-2-(2-pyridyl)-4H-1,3-benzothiazin-6-yl]oxy]acetate], the melting point is reported as 183 to 184.1 °C. For CN(C)C(=O)NCCc1cccc(-c2nc(=O)c3ccccc3s2)n1 [Example 229, N,N-Dimethyl-N′-[2-[6-(4-oxo-4H-1,3-benzothiazin-2-yl)-2-pyridyl]ethyl]urea], the melting point was 190.2 to 191 °C. Work on CCOP(=O)(Cc1cccc(-c2nc(=O)c3ccccc3s2)n1)OCC yielded a melting point of 115.5 to 116.5 °C. For CCS(=O)(=O)Cc1cccc(-c2nc(=O)c3ccccc3s2)n1 [Example 251, 2-[6-[(Ethylsulfonyl)methyl]-2-pyridyl]-4H-1,3-benzothiazine-4-one], the melting point was 188.5 to 190 °C. Compound N#CCCc1ccnc(-c2nc(=O)c3ccccc3s2)c1 [Example 317, 3-[2-(4-Oxo-4H-1,3-benzothiazin-2-yl)-4-pyridyl]propionitrile] has a melting point of 178.3 to 179 °C. CC(C)(C)OC(=O)C[S+]([O-])c1cccc(-c2nc(=O)c3ccccc3s2)n1 (centres unmarked) [Example 278, tert-Butyl {[6-(4-oxo-4H-1,3-benzothiazin-2-yl)-2-pyridyl]sulfinyl}acetate] showed a melting point of 158.8 to 159.1 °C. Cc1cccc(-c2nc(=O)c3ccccc3s2)n1 [Example 136, 2-(6-Methyl-2-pyridyl)-4H-1,3-benzothiazine-4-one] gave a melting point of 169.8 to 170.3 °C. O=C(NCc1cccc(-c2nc(=O)c3ccccc3s2)n1)c1ccccc1 [Example 207, N-[[6-(4-Oxo-4H-1,3-benzothiazin-2-yl)-2-pyridyl]methyl]benzamide] showed a melting point of 213.9 to 214.7 °C.
